Measured values taken from patent US5036091A, “3-Aryloxazolidinone derivatives, process for their preparation and their use in therapy” (Delalande S.A., priority 1989, dated 1991).

Tested on: 5-HTP potentialisation
Assay: 5-HTP potentialisation assay in rat (antidepressive activity)
Format: in vivo
Details: po, compound given orally, 5-HTP intra-peritoneal 1 h after the first treatment, read-out: ED50 (dose which brings about in 50% of the animals generalized shakings or stereotypies consecutive to 5-HTP)
Procedure: Int. Pharmacodyn. (1982), 259, 194-221. The dose of product which, when given orally, brings about in 50% of the animals (ED50) the appearance of generalized shakings or of stereotypies (trinklings, shakes of head) consecutive to the administration by intra-peritoneal route 1 h after the first treatment of 5-hydroxy-tryptophane (5-HTP) is determined in rat.
With `COCC1CN(c2ccc(OCCC(C)O)cc2)C(=O)O1` (racemic) [MD370047, 3-[4-(3-hydroxybutoxy)phenyl]-5-methoxymethyl-2-oxazolidinone] the ED50 was 1.9 mg/kg.
Compound `COCC1CN(c2ccc(OCCC(O)C(F)(F)F)cc2)C(=O)O1` (racemic) [MD370167, 3-[4-(4,4,4-trifluoro-3-hydroxybutoxy)phenyl]-5-methoxymethyl-2-oxazolidinone] has an ED50 of 1.1 mg/kg.
With `COC[C@H]1CN(c2ccc(CCCC(C)O)cc2)C(=O)O1` (stereo partly drawn) [MD230082, 3-[4-(4-hydroxypentyl)phenyl]-5(R)-methoxymethyl-2-oxazolidinone] the ED50 was 1.1 mg/kg.
With `CCOC[C@H]1CN(c2ccc(OCC[C@@H](O)C(F)(F)F)cc2)C(=O)O1` [MD230197] the ED50 was 2.4 mg/kg.
`COC[C@H]1CN(c2ccc(OCC3CCCC3O)cc2)C(=O)O1` (stereo partly drawn) [MD230201, 3-[4-(1-hydroxy-2-cyclopentylmethoxy)phenyl]-5(R)-methoxymethyl-2-oxazolidinone] gave an ED50 of 1.6 mg/kg.
`COC[C@H]1CN(c2ccc(CCC[C@@H](C)O)cc2)C(=O)O1` [MD230238, 3-[4-(4(R)-hydroxypentyl)phenyl]-5(R)-methoxymethyl-2-oxazolidinone] gave an ED50 of 1.9 mg/kg.
In the case of `COC[C@H]1CN(c2ccc(OCC[C@@H](C)O)cc2)C(=O)O1` [MD370120, 3-[4-(3(R)-hydroxybutoxy)phenyl]-5(R)-methoxymethyl-2-oxazolidinone], the ED50 is reported as 0.83 mg/kg.
For `COC[C@H]1CN(c2ccc(OCC[C@H](C)O)cc2)C(=O)O1` [MD370122, 3-[4-(3(S)-hydroxybutoxy)phenyl]-5(R)-methoxymethyl-2-oxazolidinone], the ED50 was 0.68 mg/kg.
With `COC[C@H]1CN(c2ccc(OCC[C@@H](O)C(F)(F)F)cc2)C(=O)O1` [MD370503, 3-[4-(4,4,4-trifluoro-3(R)-hydroxybutoxy)phenyl]-5(R)-methoxymethyl-2-oxazolidinone] the ED50 was 0.14 mg/kg.
`COC[C@H]1CN(c2ccc(OCC[C@H](O)C(F)(F)F)cc2)C(=O)O1` [MD370504, 3-[4-(4,4,4-trifluoro-3(S)-hydroxybutoxy)phenyl]-5(R)-methoxymethyl-2-oxazolidinone] showed an ED50 of 1.8 mg/kg.
With `Cc1cccc(N2CC(CO)OC2=O)c1` (stereo not shown) [TOLOXATONE, reference compound] the ED50 was 30 mg/kg.

Tested on: not listed separately
Assay: acute toxicity in mouse
Details: in vivo, po, method of Litchfield and Wilcoxon
In the case of `COC[C@H]1CN(c2ccc(OCC[C@@H](C)O)cc2)C(=O)O1` [MD370120, 3-[4-(3(R)-hydroxybutoxy)phenyl]-5(R)-methoxymethyl-2-oxazolidinone], the LD50 is reported as 1400 mg/kg.
In the case of `COC[C@H]1CN(c2ccc(OCC[C@@H](O)C(F)(F)F)cc2)C(=O)O1` [MD370503, 3-[4-(4,4,4-trifluoro-3(R)-hydroxybutoxy)phenyl]-5(R)-methoxymethyl-2-oxazolidinone], the LD50 is reported as 2500 mg/kg.
